Measured values taken from US20230086703A1, “N-(4-(5-chloropyridin-3-yl)phenyl)-2-(2-(cyclopropanesulfonamido)pyrimidin-4-yl) butanamide derivatives and related compounds as human CTPS1 inhibitors for the treatment of proliferative diseases” (Step Pharma S.A.S., priority 2019, published 2023).

Target: T1, human CTPS1 (Homo sapiens, UniProt P17812)
T1 construct: FLAG (with GG linker); His8 (with GG linker); purchased Proteros biostructures GmbH
T1 sequence (P17812 1-591): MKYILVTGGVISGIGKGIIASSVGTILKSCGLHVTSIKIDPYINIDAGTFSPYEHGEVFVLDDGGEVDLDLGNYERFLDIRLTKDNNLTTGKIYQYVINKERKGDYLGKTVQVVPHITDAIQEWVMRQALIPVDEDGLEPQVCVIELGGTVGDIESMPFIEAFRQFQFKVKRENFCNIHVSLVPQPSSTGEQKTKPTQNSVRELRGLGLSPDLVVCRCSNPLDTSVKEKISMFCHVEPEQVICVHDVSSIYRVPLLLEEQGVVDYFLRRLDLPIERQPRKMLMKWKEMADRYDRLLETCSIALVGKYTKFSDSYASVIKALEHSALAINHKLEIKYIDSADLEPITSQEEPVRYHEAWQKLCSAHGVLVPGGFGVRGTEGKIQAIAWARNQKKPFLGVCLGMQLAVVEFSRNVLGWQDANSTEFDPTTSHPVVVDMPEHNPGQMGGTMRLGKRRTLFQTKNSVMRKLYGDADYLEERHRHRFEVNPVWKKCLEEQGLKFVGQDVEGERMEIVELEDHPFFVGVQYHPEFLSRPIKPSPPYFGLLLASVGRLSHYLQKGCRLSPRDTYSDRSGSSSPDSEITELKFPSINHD
Assay: Human CTPS1 enzyme inhibition, ADP-Glo Max assay
Format: biochemical
Conditions: ADP-Glo Max assay; Table 10; read-out: Human CTPS1 Enzyme Inhibition, IC50 grouped by potency range (CTPS1)
Outline: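 Enzyme preincubated with compound for 10 min at 25 °C in 50 mM Tris pH 8.0, 10 mM MgCl2, 0.01% Tween-20, 2 mM L-cysteine. ATP-to-ADP conversion detected by ADP-Glo Max luminescence after 60 min depletion and 60 min development steps. Percentage inhibition calculated per concentration.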

Compound	IC50
CC(C)(C(=O)Nc1ccc(-c2cncc(Cl)n2)cc1)c1csc(NS(=O)(=O)C2CC2)n1 [T155, N-(4-(6-chloropyrazin-2-yl)phenyl)-2-(2-(cyclopropanesulfonamido)thiazol-4-yl)-2-methylpropanamide]	< 100 nM
COc1cncc(-c2ccc(NC(=O)C(OC)c3csc(NS(=O)(=O)C4CC4)n3)cc2)n1 (single isomer, unassigned) [T107, 2-(2-(cyclopropanesulfonamido)thiazol-4-yl)-2-methoxy-N-(4-(6-methoxypyrazin-2-yl)phenyl)acetamide]	< 100 nM
COc1nccc(C)c1-c1ccc(NC(=O)C(C)(C)c2csc(NS(=O)(=O)C3CC3)n2)cc1 [T250, 2-(2-(cyclopropanesulfonamido)thiazol-4-yl)-N-(4-(2-methoxy-4-methylpyridin-3-yl)phenyl)-2-methylpropanamide]	1000 to 10000 nM
Cc1cncc(-c2ccc(NC(=O)C(C)(C)c3csc(NS(=O)(=O)C4CC4)n3)nc2)n1 [T464, 2-(2-(cyclopropanesulfonamido)thiazol-4-yl)-2-methyl-N-(5-(6-methylpyrazin-2-yl)pyridin-2-yl)propanamide]	< 100 nM
CC(C)(C(=O)Nc1ccc(-c2cncc(OC3CCC3)n2)cn1)c1csc(NS(=O)(=O)C2CC2)n1 [T141, N-(5-(6-cyclobutoxypyrazin-2-yl)pyridin-2-yl)-2-(2-(cyclopropanesulfonamido)thiazol-4-yl)-2-methylpropanamide]	100 to 1000 nM
Cc1ccncc1-c1ccc(NC(=O)C(C)(C)c2csc(NS(=O)(=O)C3CC3)n2)cc1 [T254, 2-(2-(cyclopropanesulfonamido)thiazol-4-yl)-2-methyl-N-(4-(4-methylpyridin-3-yl)phenyl)propanamide]	100 to 1000 nM
O=C(Cc1csc(NS(=O)(=O)C2CC2)n1)Nc1ccc(-c2cccnc2)nc1 [T67, N-([2,3′-bipyridin]-5-yl)-2-(2-(cyclopropanesulfonamido)thiazol-4-yl)acetamide]	100 to 1000 nM
CC(C)(C)c1ccc(-c2ccc(NC(=O)Cc3csc(NS(=O)(=O)C4CC4)n3)cc2)cc1 [T243, N-(4′-(tert-butyl)-[1,1′-biphenyl]-4-yl)-2-(2-(cyclopropanesulfonamido)thiazol-4-yl)acetamide]	1000 to 10000 nM
CCC(CC)(C(=O)Nc1ccc(-c2cccnc2)cc1F)c1csc(NS(=O)(=O)C2CC2)n1 [T121, 2-(2-(cyclopropanesulfonamido)thiazol-4-yl)-2-ethyl-N-(2-fluoro-4-(pyridin-3-yl)phenyl)butanamide]	< 100 nM
CCOc1cncc(-c2ccc(NC(=O)C(C)(C)c3csc(NS(=O)(=O)C(F)(F)F)n3)cc2)n1 [T296, N-(4-(6-ethoxypyrazin-2-yl)phenyl)-2-methyl-2-(2-((trifluoromethyl)sulfonamido)thiazol-4-yl)propanamide]	100 to 1000 nM
CC(C)(C(=O)Nc1ccc(-c2cccnc2)cc1)c1csc(NS(=O)(=O)C2(C)CC2)n1 [T299, 2-methyl-2-(2-((1-methylcyclopropane)-1-sulfonamido)thiazol-4-yl)-N-(4-(pyridin-3-yl)phenyl)propanamide]	100 to 1000 nM
CC(C)(C(=O)Nc1ccc(-c2cncc(OCC(F)(F)F)n2)cc1F)c1csc(NS(=O)(=O)C2CC2)n1 [T131, 2-(2-(cyclopropanesulfonamido)thiazol-4-yl)-N-(2-fluoro-4-(6-(2,2,2-trifluoroethoxy)pyrazin-2-yl)phenyl)-2-methylpropanamide]	< 100 nM
CC(C)(C(=O)Nc1ccc(-c2cncc(Cl)c2)cc1)c1csc(NS(=O)(=O)C2CC2)n1 [T252, N-(4-(5-chloropyridin-3-yl)phenyl)-2-(2-(cyclopropanesulfonamido)thiazol-4-yl)-2-methylpropanamide]	< 100 nM
C#Cc1cncc(-c2ccc(NC(=O)C(C)(C)c3csc(NS(=O)(=O)C4CC4)n3)cc2)n1 [T136, 2-(2-(cyclopropanesulfonamido)thiazol-4-yl)-N-(4-(6-ethynylpyrazin-2-yl)phenyl)-2-methylpropanamide]	< 100 nM
COc1cncc(-c2cnc(NC(=O)C(C)(C)c3csc(NS(=O)(=O)C4CC4)n3)nc2)c1 [T292, 2-(2-(cyclopropanesulfonamido)thiazol-4-yl)-N-(5-(5-methoxypyridin-3-yl)pyrimidin-2-yl)-2-methylpropanamide]	100 to 1000 nM
CC(C)(C(=O)Nc1ccc(-c2cncc(C(F)(F)F)n2)cc1)c1csc(NS(=O)(=O)C2CC2)n1 [T267, 2-(2-(cyclopropanesulfonamido)thiazol-4-yl)-2-methyl-N-(4-(6-(trifluoromethyl)pyrazin-2-yl)phenyl)propanamide]	< 100 nM

Compound	IC50
CC(C)(C(=O)Nc1ccc(-c2cncc(F)c2)cc1F)c1csc(NS(=O)(=O)C2CC2)n1 [T126, 2-(2-(cyclopropanesulfonamido)thiazol-4-yl)-N-(2-fluoro-4-(5-fluoropyridin-3-yl)phenyl)-2-methylpropanamide]	< 100 nM
CC(C)(C(=O)Nc1ccc(-c2cncc(N3CCCC3)n2)cc1)c1csc(NS(=O)(=O)C2CC2)n1 [T278, 2-(2-(cyclopropanesulfonamido)thiazol-4-yl)-2-methyl-N-(4-(6-(pyrrolidin-1-yl)pyrazin-2-yl)phenyl)propanamide]	< 100 nM
CC(C)Oc1cncc(-c2ccc(NC(=O)C(C)(C)c3csc(NS(=O)(=O)C4CC4)n3)c(F)c2)c1 [T159, 2-(2-(cyclopropanesulfonamido)thiazol-4-yl)-N-(2-fluoro-4-(5-isopropoxypyridin-3-yl)phenyl)-2-methylpropanamide]	< 100 nM
CC(C)(C(=O)Nc1ccc(-c2cccc(C(F)(F)F)c2)cn1)c1csc(NS(=O)(=O)C2CC2)n1 [T235, 2-(2-(cyclopropanesulfonamido)thiazol-4-yl)-2-methyl-N-(5-(3-(trifluoromethyl)phenyl)pyridin-2-yl)propanamide]	100 to 1000 nM
CC(C)(C(=O)Nc1ccc(-c2cncc(C(F)(F)F)c2)cc1F)c1csc(NS(=O)(=O)CC2CC2)n1 [T427, 2-(2-((cyclopropylmethyl)sulfonamido)thiazol-4-yl)-N-(2-fluoro-4-(5-(trifluoromethyl)pyridin-3-yl)phenyl)-2-methylpropanamide]	100 to 1000 nM
O=C(Cc1csc(NS(=O)(=O)C2CC2)n1)Nc1ccc(-c2cncc(CO)c2)cc1 [T45, 2-(2-(cyclopropanesulfonamido)thiazol-4-yl)-N-(4-(5-(hydroxymethyl)pyridin-3-yl)phenyl)acetamide]	100 to 1000 nM
O=C(Cc1csc(NS(=O)(=O)C2CC2)n1)Nc1ccc(-c2ccc(F)cc2)cc1 [T25, 2-(2-(cyclopropanesulfonamido)thiazol-4-yl)-N-(4′-fluoro-[1,1′-biphenyl]-4-yl)acetamide]	1000 to 10000 nM
COc1ncc(-c2ccc(NC(=O)C(C)(C)c3csc(NS(=O)(=O)C4CC4)n3)cc2)cc1C [T251, 2-(2-(cyclopropanesulfonamido)thiazol-4-yl)-N-(4-(6-methoxy-5-methylpyridin-3-yl)phenyl)-2-methylpropanamide]	1000 to 10000 nM
CC(C)(C(=O)Nc1ncc(-c2cnccn2)cc1F)c1csc(NS(=O)(=O)C2CC2)n1 [T110, 2-(2-(cyclopropanesulfonamido)thiazol-4-yl)-N-(3-fluoro-5-(pyrazin-2-yl)pyridin-2-yl)-2-methylpropanamide]	100 to 1000 nM
CCOc1cncc(-c2ccc(NC(=O)C(C)(C)c3csc(NS(C)(=O)=O)n3)cc2)n1 [T434, N-(4-(6-ethoxypyrazin-2-yl)phenyl)-2-methyl-2-(2-(methylsulfonamido)thiazol-4-yl)propanamide]	< 100 nM
CC(C)(C(=O)Nc1ccc(-c2cncc(OC3CCC3)n2)cc1)c1csc(NS(=O)(=O)C2CC2)n1 [T54, N-(4-(6-cyclobutoxypyrazin-2-yl)phenyl)-2-(2-(cyclopropanesulfonamido)thiazol-4-yl)-2-methylpropanamide]	100 to 1000 nM
CC(C)(C(=O)Nc1ncc(-c2cncc(C#N)c2)cc1F)c1csc(NS(=O)(=O)C2CC2)n1 [T228, N-(5′-cyano-5-fluoro-[3,3′-bipyridin]-6-yl)-2-(2-(cyclopropanesulfonamido)thiazol-4-yl)-2-methylpropanamide]	< 100 nM
CC(C)(C(=O)Nc1ccc(-c2cncc(CO)c2)cc1)c1csc(NS(=O)(=O)C2CC2)n1 [T241, 2-(2-(cyclopropanesulfonamido)thiazol-4-yl)-N-(4-(5-(hydroxymethyl)pyridin-3-yl)phenyl)-2-methylpropanamide]	100 to 1000 nM
COC(C(=O)Nc1ccc(-c2cncc(C(F)(F)F)n2)cc1F)c1csc(NS(=O)(=O)C2CC2)n1 (single isomer, unassigned) [T458, 2-(2-(cyclopropanesulfonamido)thiazol-4-yl)-N-(2-fluoro-4-(6-(trifluoromethyl)pyrazin-2-yl)phenyl)-2-methoxyacetamide]	< 100 nM
CC(C)(C(=O)Nc1ncc(-c2cncc(C(F)(F)F)n2)cc1F)c1csc(NS(=O)(=O)C2CC2)n1 [T112, 2-(2-(cyclopropanesulfonamido)thiazol-4-yl)-N-(3-fluoro-5-(6-(trifluoromethyl)pyrazin-2-yl)pyridin-2-yl)-2-methylpropanamide]	< 100 nM
